Reference: patent publication US9597407B2, “Targeted antimicrobial moieties” (C3 Jian, Inc., priority 2009, dated 2017)
Entries after “also recorded” stand apart in the source; their conditions may differ.

What was measured:
bacteria = assay: Binding of targeting peptides to microorganisms (Table 3); conditions: microorganism the targeting peptide binds; binding in aqueous buffers that varied with peptide solubility, preferably 1x PBS
microorganisms [1] = assay: Peptide activities: binding, antimicrobial, growth or phenotype altering (Table 8)
From the text: In certain embodiments, peptides described herein can have multiple activities. Thus for example, a peptide can have both binding/targeting activity and antimicrobial activity. Such peptides can be used, e.g., in a chimeric construct, for any or all of these properties. Thus, for example, a peptide designated “B” in Table 8 can be used as a targeting peptide. If it is also designated G or M it can also be used for antimicrobial activity.

microorganisms [2] = assay: Morphology, biofilm and growth disruption by peptides (Table 5); assay type: cell-based; set-up: key: A: Peptide aggregates; B: Less hyphal formation; Clumps; Diffuse clumps and small polyps; F: Diffuse growth; H: Thin; I: Growth inhibition; Microcolony formation; Rippled; Small polyps; Thick; W: Halo formation on top, microlonies on bottom
From the text: In certain embodiments peptides that induce alterations in phenotype or other biological activities can also be used as antimicrobial effector moieties.

PF-005 (chain 1 MESIFKIKLMNGICRSENMNMKKKNKGEKI; chain 2 MESIFKIKLMNGICRSENMNMKKKNKGEKI; Peptide with targeting and/or antimicrobial activity)
Target(s) (bacteria): S. epidermidis and E. coli and MRSA and S. pneumoniae and E. faecalis | Activities (microorganisms [1]): G B | Organism, effect (microorganisms [2]; B. subtilis): B. subtilis (C) | Organism, effect (microorganisms [2]; S. pneumoniae): S. pneumoniae (H)

PF-011 (MFCYYKQHKGDNFSIEEVKNIIADNEMKVN; Peptide with targeting and/or antimicrobial activity)
Target(s) (bacteria): M. luteus; also recorded: E. coli; also recorded: P. aeruginosa; also recorded: S. pneumoniae; also recorded: C. jeikeium | Activities (microorganisms [1]): G B | Organism, effect (microorganisms [2]; C. jeikeium): C. jeikeium (C) | Organism, effect (microorganisms [2]; MRSA): MRSA (R)

PF-015 (SIDKRNLYNLKYYE; Peptide with targeting and/or antimicrobial activity)
Target(s) (bacteria): E. faecalis; also recorded: C. jeikeium | Activities (microorganisms [1]): G B | Organism, effect (microorganisms [2]; MRSA): MRSA (W)

PF-017 (ESIIE; Peptide with targeting and/or antimicrobial activity)
Target(s) (bacteria): E. coli | Activities (microorganisms [1]): G B | Organism, effect (microorganisms [2]; MRSA): MRSA (M)

PF-020 (MKIILLLFLIFGFIVVVTLKSEHQLTLFSI; Peptide with targeting and/or antimicrobial activity)
Target(s) (bacteria): S. epidermidis and M. luteus and C. albicans and MRSA and S. pneumoniae and E. faecalis | Activities (microorganisms [1]): G B | Organism, effect (microorganisms [2]; M. luteus): M. luteus (C) | Organism, effect (microorganisms [2]; MRSA): MRSA (C) | Organism, effect (microorganisms [2]; S. epidermidis): S. epidermidis (C) | Organism, effect (microorganisms [2]; S. mutans): S. mutans (F) | Organism, effect (microorganisms [2]; S. pneumoniae): S. pneumoniae (D)

PF-021 (FSLNFSKQKYVTVN; Peptide with targeting and/or antimicrobial activity)
Target(s) (bacteria): S. epidermidis; also recorded: M. luteus; also recorded: P. mirabilis; also recorded: E. coli; also recorded: C. albicans; also recorded: E. faecalis; also recorded: C. jeikeium | Activities (microorganisms [1]): G B | Organism, effect (microorganisms [2]; C. jeikeium): C. jeikeium (R) | Organism, effect (microorganisms [2]; M. luteus): M. luteus (A) | Organism, effect (microorganisms [2]; MRSA): MRSA (R) | Organism, effect (microorganisms [2]; S. epidermidis): S. epidermidis (A)

PF-024 (DLRKAK; Peptide with targeting and/or antimicrobial activity)
Target(s) (bacteria): M. luteus and C. albicans and MRSA and E. faecalis and C. jeikeium | Activities (microorganisms [1]): G B | Organism, effect (microorganisms [2]; MRSA): MRSA (M) | Organism, effect (microorganisms [2]; S. epidermidis): S. epidermidis (D)

PF-025 (LLIIFRLWLELKWKNKK; Peptide with targeting and/or antimicrobial activity)
Target(s) (bacteria): S. epidermidis and M. luteus and P. mirabilis and E. coli and P. aeruginosa and MRSA and E. faecalis and C. jejuni | Activities (microorganisms [1]): G B | Organism, effect (microorganisms [2]; C. jeikeium): C. jeikeium (A) | Organism, effect (microorganisms [2]; M. luteus): M. luteus (A) | Organism, effect (microorganisms [2]; MRSA): MRSA (R) | Organism, effect (microorganisms [2]; S. epidermidis): S. epidermidis (S)

PF-026 (SIHFIN; Peptide with targeting and/or antimicrobial activity)
Target(s) (bacteria): S. epidermidis and M. luteus and P. mirabilis and C. albicans and MRSA and E. faecalis and C. jeikeium | Activities (microorganisms [1]): G B | Organism, effect (microorganisms [2]; MRSA): MRSA (M)

PF-027 (HNARKYLEFISQKIDGDKLTKEDSL; Peptide with targeting and/or antimicrobial activity)
Target(s) (bacteria): M. luteus and MRSA and E. faecalis and C. jejuni | Activities (microorganisms [1]): G B | Organism, effect (microorganisms [2]; MRSA): MRSA (M) | Organism, effect (microorganisms [2]; S. epidermidis): S. epidermidis (D)

PF-029 (NSTNE; Peptide with targeting and/or antimicrobial activity)
Target(s) (bacteria): S. epidermidis; also recorded: M. luteus; also recorded: C. albicans; also recorded: C. jejuni | Activities (microorganisms [1]): G B | Organism, effect (microorganisms [2]; MRSA): MRSA (M)

PF-031 (MPHHSTTSSRIVVPAHQSNMASTPNLSITP; Peptide with targeting and/or antimicrobial activity)
Target(s) (bacteria): M. luteus; also recorded: C. albicans | Activities (microorganisms [1]): G B | Organism, effect (microorganisms [2]; MRSA): MRSA (M)

PF-034 (EPKKKHFPKMESASSEP; Peptide with targeting and/or antimicrobial activity)
Target(s) (bacteria): M. luteus | Activities (microorganisms [1]): G B | Organism, effect (microorganisms [2]; S. epidermidis): S. epidermidis (A)

PF-035 (SFYESY; Peptide with targeting and/or antimicrobial activity)
Target(s) (bacteria): S. epidermidis and M. luteus and E. coli and C. albicans and MRSA and C. jeikeium and C. jejuni | Activities (microorganisms [1]): G B | Organism, effect (microorganisms [2]; MRSA): MRSA (M)

PF-556 (SLQIRMNTLTAAKASIEAA; Peptide with targeting and/or antimicrobial activity)
Activities (microorganisms [1]): G B | Organism, effect (morphology, biofilm and growth disruption) (microorganisms [2]; B. subtilis): B. subtilis (C) | Organism, effect (morphology, biofilm and growth disruption) (microorganisms [2]; C. jeikeium): C. jeikeium (D) | Organism, effect (morphology, biofilm and growth disruption) (microorganisms [2]; C. jejuni): C. jejuni (R) | Organism, effect (morphology, biofilm and growth disruption) (microorganisms [2]; E. faecalis): E. faecalis (A) | Organism, effect (morphology, biofilm and growth disruption) (microorganisms [2]; M. luteus): M. luteus (A) | Organism, effect (morphology, biofilm and growth disruption) (microorganisms [2]; MRSA): MRSA (M) | Organism, effect (morphology, biofilm and growth disruption) (microorganisms [2]; S. epidermidis): S. epidermidis (A) | Organism, effect (morphology, biofilm and growth disruption) (microorganisms [2]; S. pneumoniae): S. pneumoniae (D)

PF-562 (TPEQWLERSTVVVTGLLNRK; Peptide with targeting and/or antimicrobial activity)
Activities (microorganisms [1]): G B | Organism, effect (morphology, biofilm and growth disruption) (microorganisms [2]; C. jejuni): C. jejuni (R) | Organism, effect (morphology, biofilm and growth disruption) (microorganisms [2]; M. luteus): M. luteus (R) | Organism, effect (morphology, biofilm and growth disruption) (microorganisms [2]; MRSA): MRSA (M) | Organism, effect (morphology, biofilm and growth disruption) (microorganisms [2]; S. epidermidis): S. epidermidis (A) | Organism, effect (morphology, biofilm and growth disruption) (microorganisms [2]; S. pneumoniae): S. pneumoniae (D)

PF-577 (PFETRESFRVPVIGILGGWDYFMHP; Peptide with targeting and/or antimicrobial activity)
Activities (microorganisms [1]): G B | Organism, effect (morphology, biofilm and growth disruption) (microorganisms [2]; C. jejuni): C. jejuni (R) | Organism, effect (morphology, biofilm and growth disruption) (microorganisms [2]; E. coli): E. coli (A) | Organism, effect (morphology, biofilm and growth disruption) (microorganisms [2]; E. faecalis): E. faecalis (A) | Organism, effect (morphology, biofilm and growth disruption) (microorganisms [2]; MRSA): MRSA (M) | Organism, effect (morphology, biofilm and growth disruption) (microorganisms [2]; P. aeruginosa): P. aeruginosa (A) | Organism, effect (morphology, biofilm and growth disruption) (microorganisms [2]; S. epidermidis): S. epidermidis (A) | Organism, effect (morphology, biofilm and growth disruption) (microorganisms [2]; S. pneumoniae): S. pneumoniae (R)

PF-578 (QKANLRIGFTYTSDSNVCNLTFALLGSK; Peptide with targeting and/or antimicrobial activity)
Activities (microorganisms [1]): G B | Organism, effect (morphology, biofilm and growth disruption) (microorganisms [2]; E. coli): E. coli (C) | Organism, effect (morphology, biofilm and growth disruption) (microorganisms [2]; M. luteus): M. luteus (C) | Organism, effect (morphology, biofilm and growth disruption) (microorganisms [2]; MRSA): MRSA (C) | Organism, effect (morphology, biofilm and growth disruption) (microorganisms [2]; P. mirabilis): P. mirabilis (C) | Organism, effect (morphology, biofilm and growth disruption) (microorganisms [2]; S. epidermidis): S. epidermidis (D) | Organism, effect (morphology, biofilm and growth disruption) (microorganisms [2]; S. mutans): S. mutans (D) | Organism, effect (morphology, biofilm and growth disruption) (microorganisms [2]; S. pneumoniae): S. pneumoniae (D)

PF-603 (IDKLKKMNLQKLSYEVRISQDGKSIYARIK; Peptide with targeting and/or antimicrobial activity)
Activities (microorganisms [1]): G B | Organism, effect (morphology, biofilm and growth disruption) (microorganisms [2]; E. coli): E. coli (M) | Organism, effect (morphology, biofilm and growth disruption) (microorganisms [2]; M. luteus): M. luteus (A) | Organism, effect (morphology, biofilm and growth disruption) (microorganisms [2]; MRSA): MRSA (M) | Organism, effect (morphology, biofilm and growth disruption) (microorganisms [2]; S. epidermidis): S. epidermidis (D) | Organism, effect (morphology, biofilm and growth disruption) (microorganisms [2]; S. pneumoniae): S. pneumoniae (C)

PF-619 (chain 1 WSRVPGHSDTGWKVWHRW; chain 2 WSRVPGHSDTGWKVWHRW; Peptide with targeting and/or antimicrobial activity)
Activities (microorganisms [1]): G B | Organism, effect (morphology, biofilm and growth disruption) (microorganisms [2]; E. coli): E. coli (C) | Organism, effect (morphology, biofilm and growth disruption) (microorganisms [2]; MRSA): MRSA (M) | Organism, effect (morphology, biofilm and growth disruption) (microorganisms [2]; S. epidermidis): S. epidermidis (M) | Organism, effect (morphology, biofilm and growth disruption) (microorganisms [2]; S. pneumoniae): S. pneumoniae (C)

B1: PF-748 (peptide)
chain 1: FQGFFDVAVNKWWEEHNKAKLWKNVKGKFLEGEGEEEDDE
chain 2: FQGFFDVAVNKWWEEHNKAKLWKNVKGKFLEGEGEEEDDE
modifications: Peptide with targeting and/or antimicrobial activity
Activities (microorganisms [1]): G B | Organism, effect (morphology, biofilm and growth disruption) (microorganisms [2]; S. pneumoniae): S. pneumoniae (H)
